From patent US20240239849A1, “PEPTIDE ENTITIES WITH ANTIMICROBIAL ACTIVITY AGAINST MULTI-DRUG RESISTANT PATHOGENS” (CENTRO DE INVESTIGACIÓN Y DESARROLLO DE MEDICAMENTOS. CIDEM, priority 2020, published 2024)

Tests used:
[1] = system: K. pneumoniae (multi-resistant clinical isolate); assay: checkerboard test, Meropenem/peptide combinations; format: cell-based, Klebsiella pneumoniae; details: meropenem alone, denominator of FICA
Description: (§1) Only strains from clinical isolates of Gram-negative bacteria Klebsiella pneumoniae and Gram-positive Staphylococcus aureus multiresistant to antibiotics were chosen to carry out the combination tests between the peptides. The experiments were carried out according to the methodology of the test described as “checkerboard” or checkerboard [Huang, R.-y., et al., Isobologram Analysis: A Comprehensive Review of Methodology and Current Research. Frontiers in Pharmacology, 2019. 10: p. 1222] This test allows the determination of the fractional inhibitory concentration index (FICI) following Equation 3, which establishes the classification of the effects obtained as follows: synergy (FICI≤0.5), additive (0.5<FICI≤ 1), indifferent (1<FICI≤2) and antagonism (FICI>2).
(§2) Where: MICA: minimum inhibitory concentration of compound A; MICB: minimum inhibitory concentration of compound B; MICAB: minimum concentration of A that combined with B inhibits growth; MICBA: minimum concentration of B that combined with A inhibits growth. The checkerboard experiment was performed in sterile 96-well polypropylene plates (Eppendorf, Germany). Isolated colonies of each bacterium were used to create 1×10^5 CFU bacterial cultures in PBS, referred to as a working culture. In addition, 64 μM stock solutions of the peptides were prepared in PBS. Two-fold dilutions in PBS of each peptide were made in 50 μL final volume. […]

[2] = system: S. aureus (multi-resistant clinical isolate); assay: checkerboard test, Meropenem/peptide combinations; format: cell-based, Staphylococcus aureus; details: meropenem alone, denominator of FICA
Description: as §1, §2

Question: Which results are given for C[C@@H](O)[C@H]1C(=O)N2C(C(=O)O)=C(S[C@@H]3CN[C@H](C(=O)N(C)C)C3)[C@H](C)[C@H]12 [MER, Meropenem, reference compound]?
Answer: MICA (minimum inhibitory concentration of compound A) [1]: 8.0 µg/mL; MICA (minimum inhibitory concentration of compound A) [2]: 8.0 µg/mL
